Assay results: patent US20240366571A1, “MODULATORS OF SK4 POTASSIUM CHANNEL AND USES THEREOF” (Ramot at Tel-Aviv University Ltd., priority 2022, published 2024)
“Also recorded” adds a separate entry of the source.

Biological target: T1, human SK4 (Homo sapiens, UniProt O15554)
T1 construct: expressed in transfected cells; host or cells: CHO cells
Assay: Whole-cell patch-clamp of WT SK4 K+ currents in transfected CHO cells
Type: cell-based
Settings: 20 μM, whole-cell
Method: Constructs: For CHO cell transfection, the following were cloned: human SK1, rat SK2, human SK3, and rat calmodulin into the pcDNA3 vector, human SK4 into pEGFP-C1 vector, and PIP4,5-kinase into an IRES-dsRed plasmid. The mutations were introduced using the PCR-based QuikChange™ site-directed mutagenesis (Stratagene®) and were verified by full sequencing of the entire plasmid vector.
Cell Culture and Transfection: Chinese hamster ovary (CHO) cells were grown in Dulbecco's modified Eagle's medium supplemented with 2 millimolar (mM) glutamine, 10% fetal calf serum, and antibiotics. In brief, 40,000 cells seeded on poly-L-lysine-coated glass coverslips (13 millimeter (mm) in diameter) in a 24-multiwell plate were transfected with 0.5 microgram (μg) pEGFP-SK4/0.5 μg mutant SK4, 1.2 μg dsRed-PIP4,5-kinase or with 1 μg SK1/SK2/SK3 together with pIRES-CD8 (0.3 μg) as a marker for transfection. Transfection was performed using TransIT-LT1 Transfection Reagent (Mirus Bio) according to the manufacturer's protocol. For electrophysiology, transfected cells were visualized approximately 40 hours after transfection with a Zeiss Axiovert 35 inverted florescence microscope.
Whole-cell patch-clamp recording: Voltage-clamp recordings were performed using the whole-cell configuration of the patch-clamp technique. Signals were amplified using an […] patch-clamp amplifier (Molecular Devices), sampled at 5 kHz and filtered at 2.4 kHz via a four pole Bessel low pass filter. Data were acquired using pClamp™ 10.5 software in conjunction with an Axon™ DigiData® 1440A interface (Molecular Devices). The patch pipettes were pulled from borosilicate glass (Harvard Apparatus) with a resistance of 3-5 megaohms (MΩ). The intracellular pipette solution contained 130 mM KCl, 5 mM EGTA, 10 mM HEPES, pH 7.3 (adjusted with KOH), and CaCl2 calculated for a final concentration of 1 μM free-Ca^2+, by MAXCHELATOR (WEBMAXC STANDARD) software, with sucrose added to adjust osmolarity to 290 mosM. The external solution (310 mosM) contained 140 mM NaCl, 4 mM KCl, 1.8 mM CaCl2, 1.2 mM MgCl2, 11 mM glucose, and 5.5 mM HEPES adjusted with NaOH to pH 7.3. CHO cells were held at −90 millivolt (mV) and SK4 K^+ currents were activated using a voltage ramp protocol from −100 mV to +60 mV for 150 milliseconds. Electrophysiological data analysis was performed using the Clampfit program (pClamp™ 10.5; Molecular Devices).
Some of the compounds were tested by comparing trace of WT SK4 channel currents in the absence and presence of 20 μM of the tested compound.

Row | Structure (SMILES) | inhibition of WT SK4 currents
1 | CCCCCCCn1c(=O)[nH]c2ccccc21 [BA6B, 1-heptyl-1,3-dihydro-2H-benzo[d]imidazol-2-one] | about 25%

Same assay, conditions: CHO, 20 μM, whole-cell

Row | Structure (SMILES) | inhibition at 20 µM
2 | CCCCCCCn1c(=O)[nH]c2ccccc21 [BA6B, 1-heptyl-1,3-dihydro-2H-benzo[d]imidazol-2-one] | 25%

Same assay, conditions: WT SK4 currents in absence and presence of 20 μM compound

Row | Structure (SMILES) | SK4 K+ channel modulating activity
3 | CCCCCn1c(=O)n(CCCCC)c2cc(Cl)c(Cl)cc21 [BA42, 5,6-dichloro-1,3-dipentyl-1,3-dihydro-2H-benzo[d]imidazol-2-one] | Inactive
4 | CCCn1c(=O)n(CCC)c2cc(C)ccc21 [BA2OC3c, 5-methyl-1,3-dipropyl-1,3-dihydro-2H-benzo[d]imidazol-2-one] | Inactive
5 | CCCCCCn1c(=O)n(CCCCCC)c2cc(C)c(C)cc21 [BA54, 1,3-dihexyl-5,6-dimethyl-1,3-dihydro-2H-benzo[d]imidazol-2-one] | Inactive
6 | CCCCCn1c(=O)n(CCCCC)c2cc(F)ccc21 [BA63, 5-fluoro-1,3-dipentyl-1,3-dihydro-2H-benzo[d]imidazol-2-one] | Inactive
7 | CCCCCCn1c(=O)[nH]c2ccccc21 [BA5B, 1-hexyl-1,3-dihydro-2H-benzo[d]imidazol-2-one] | inhibition; also recorded: Inhibitor
8 | Cc1cc2[nH]c(=O)[nH]c2cc1C [BA50, 5,6-dimethyl-1,3-dihydro-2H-benzo[d]imidazol-2-one] | Inactive
9 | CCCCCCCCn1c(=O)n(CCCCCCCC)c2ccccc21 [BA7A, 1,3-dioctyl-1,3-dihydro-2H-benzo[d]imidazol-2-one] | Inactive
10 | CCCCCCCCCCn1c(=O)[nH]c2ccccc21 [BA8B, 1-decyl-1,3-dihydro-2H-benzo[d]imidazol-2-one] | Inactive
11 | CCCCCCn1c(=O)n(CCCCCC)c2ccccc21 [BA5A, 1,3-dihexyl-1,3-dihydro-2H-benzo[d]imidazol-2-one] | Inactive
12 | CCCCCCCn1c(=O)n(CCCCCCC)c2cc(Cl)c(Cl)cc21 [BA46, 5,6-dichloro-1,3-diheptyl-1,3-dihydro-2H-benzo[d]imidazol-2-one] | Inactive
13 | Cn1c(=O)n(C)c2ccccc21 [BA2A, 1,3-dimethyl-1,3-dihydro-2H-benzo[d]imidazol-2-one] | Inactive
14 | CCCn1c(=O)[nH]c2ccccc21 [BA3B, 1-propyl-1,3-dihydro-2H-benzo[d]imidazol-2-one] | Inactive
15 | Cc1ccc2[nH]c(=O)[nH]c2c1 [BA20, 5-methyl-1,3-dihydro-2H-benzo[d]imidazol-2-one] | Inactive
16 | CCCCCn1c(=O)[nH]c2ccccc21 [BA4B, 1-pentyl-1,3-dihydro-2H-benzo[d]imidazol-2-one] | inhibition; also recorded: Inhibitor
17 | CCCCCCCn1c(=O)n(CCCCCCC)c2cc(C)c(C)cc21 [BA56, 1,3-diheptyl-5,6-dimethyl-1,3-dihydro-2H-benzo[d]imidazol-2-one] | Inactive
18 | CCCCCn1c(=O)n(CCCCC)c2ccccc21 [BA4A, 1,3-dipentyl-1,3-dihydro-2H-benzo[d]imidazol-2-one] | Inactive
19 | CCCCCCCn1c(=O)[nH]c2ccccc21 [BA6B, 1-heptyl-1,3-dihydro-2H-benzo[d]imidazol-2-one] | inhibited; also recorded: inhibition; also recorded: Inhibitor
20 | CCCCCCCn1c(=O)n(CCCCCCC)c2cc(F)ccc21 [BA69, 5-fluoro-1,3-diheptyl-1,3-dihydro-2H-benzo[d]imidazol-2-one] | Inactive
21 | CCCCCCn1c(=O)n(CCCCCC)c2cc(C)ccc21 [BA26, 1,3-dihexyl-5-methyl-1,3-dihydro-2H-benzo[d]imidazol-2-one] | Inactive
22 | CCCn1c(=O)n(CCC)c2ccccc21 [BA3A, 1,3-dipropyl-1,3-dihydro-2H-benzo[d]imidazol-2-one] | Inactive
23 | CCCCCCCCCCCCn1c(=O)n(CCCCCCCCCCCC)c2ccccc21 [BA9A, 1,3-didodecyl-1,3-dihydro-2H-benzo[d]imidazol-2-one] | Inactive
24 | CCCCCCn1c(=O)n(CCCCCC)c2cc(Cl)c(Cl)cc21 [BA44, 5,6-dichloro-1,3-dihexyl-1,3-dihydro-2H-benzo[d]imidazol-2-one] | Inactive
25 | CCCCCCCCCCn1c(=O)n(CCCCCCCCCC)c2ccccc21 [BA8A, 1,3-didecyl-1,3-dihydro-2H-benzo[d]imidazol-2-one] | Inactive
26 | CCCCCn1c(=O)n(CCCCC)c2cc(C)ccc21 [BA23, 5-methyl-1,3-dipentyl-1,3-dihydro-2H-benzo[d]imidazol-2-one] | Inactive
27 | CCCCCCCn1c(=O)n(CCCCCCC)c2cc(C)ccc21 [BA29, 1,3-diheptyl-5-methyl-1,3-dihydro-2H-benzo[d]imidazol-2-one] | Inactive
28 | Cc1cccc2[nH]c(=O)[nH]c12 [BA30, 4-methyl-1,3-dihydro-2H-benzo[d]imidazol-2-one] | Inactive
29 | CCCCCCCCn1c(=O)[nH]c2ccccc21 [BA7B, 1-octyl-1,3-dihydro-2H-benzo[d]imidazol-2-one] | Inactive
30 | CCCCCCn1c(=O)n(CCCCCC)c2cc(F)ccc21 [BA66, 5-fluoro-1,3-dihexyl-1,3-dihydro-2H-benzo[d]imidazol-2-one] | Inactive
31 | Cc1ccc2c(c1)n(C)c(=O)n2C [BA2OC1c, 1,3,5-trimethyl-1,3-dihydro-2H-benzo[d]imidazol-2-one] | Inactive
32 | CCCCCCCn1c(=O)n(CCCCCCC)c2ccccc21 [BA6A, 1,3-diheptyl-1,3-dihydro-2H-benzo[d]imidazol-2-one] | Inactive

Same assay, conditions: dose-dependent inhibition of WT SK4 channels; read-out: SK4 K+ channel modulating activity (IC50)

Row | Structure (SMILES) | IC50
33 | CCCCCCCn1c(=O)[nH]c2ccccc21 [BA6B, 1-heptyl-1,3-dihydro-2H-benzo[d]imidazol-2-one] | 50 µM
